Structures can show the parent of a compound that is named as a salt.
Assays:
[1] = biological target: T1, MOR (Homo sapiens, UniProt P35372); test: [35S]GTPγS binding assay, CHO-hMOR membranes; type: biochemical; conditions: for EC50: [35S]GTPγS, CHO human MOR membranes, read-out: MOR EC50; for Emax: read-out: MOR % stim.
T1 construct: host or cells: CHO (CHO-hMOR)
Protocol: (§1) Efficacies are presented as percentage stimulation relative to the standard full agonists, [D-Ala^2,N-Me-Phe4,Gly-ol^5]enkephalin (DAMGO for MOR),[53] [D-Pen^2,D-Pen^5]enkephalin (DPDPE for DOR)[54] and N-methyl-2-phenyl-N-[(5R,7S,8S)-7-(pyrrolidin-1-yl)-1-oxaspiro[4.5]dec-8-yl]acetamide (U69,593 for KOR).[55]
(§2) Membranes from CHO cells expressing human opioid receptors were prepared in 50 mM Tris-HCl buffer (pH 7.7) according to a previously described procedure.[64] Cells expressing human opioid receptors grown at confluence were removed from the culture plates by scraping, homogenized in 50 mM Tris buffer (pH 7.7), using a Polytron homogenizer, then centrifuged once and washed by an additional centrifugation at 27 000g for 15 min, at 4 °C. The final pellet was resuspended in Tris buffer and stored at −80 °C until use. Protein content of brain and cell membrane preparation homogenates was determined by the method of Bradford using bovine serum albumin as the standard.[65]
(§3) Binding of [^35S]GTPγS to membranes from CHO cells stably expressing the human opioid receptors was conducted according to the published procedures.[49],[64] Cell membranes (5–10 μg) in 20 mM HEPES, 10 mM MgCl2, and 100 mM NaCl (pH 7.4) were incubated with 0.05 nM [^35S]GTPγS, 10 μM GDP, and various concentrations of test compound in a final volume of 1 mL, for 60 min at 25 °C. Nonspecific binding was determined using 10 μM GTPγS, and the basal binding was determined in the absence of test ligand. Samples are filtered over glass Whatman glass GF/B fiber filters and counted as described for binding assays. All experiments were performed in duplicate and repeated at least three times.
(§4) Data were analyzed and graphically processed using the GraphPad Prism 5.0 Software (GraphPad Prism Software Inc., San Diego, CA). For in vitro assays, inhibition constant (Ki in nM), potency (EC50 in nM), and efficacy (% stimulation) values were determined from concentration–response curves by nonlinear regression analysis. The Ki values were determined by the method of Cheng and Prusoff.[66] In the [^35S]GTPγS binding assays, efficacy was determined relative to the reference full opioid agonists, DAMGO (MOR), DPDPE (DOR), and U69,593 (KOR). In vitro data are presented as mean ± SEM of three to four independent experiments each performed in duplicate. […] Each experimental group included six to seven mice. Data were statistically evaluated using one-way ANOVA with Tukey’s post hoc test for multiple comparisons with significance set at P < 0.05.

[2] = biological target: T2, DOR (Homo sapiens, UniProt P41143); test: [35S]GTPγS binding assay, CHO-hDOR membranes; type: biochemical; conditions: for EC50: [35S]GTPγS, CHO human DOR membranes; for Emax: relative to reference full agonist DPDPE, read-out: DOR % stim.
T2 construct: host or cells: CHO (CHO-hDOR)
Protocol: as §1, §2, §3, §4

[3] = biological target: T3, KOR (Homo sapiens, UniProt P41145); test: [35S]GTPγS binding assay, CHO-hKOR membranes; type: biochemical; conditions: for EC50: [35S]GTPγS, CHO human KOR membranes, read-out: KOR EC50; for Emax: relative to reference full agonist U69,593, read-out: KOR % stim.
T3 construct: host or cells: CHO (CHO-hKOR)
Protocol: as §1, §2, §3, §4

[4] = test system: male CD1 mice; test: acetic acid-induced writhing assay after sc administration; type: in vivo, mouse; conditions: for ED50: Mus musculus, 0.5 h, read-out: ED50 (95% CI), mice, sc, inhibition of writhing 30 min after drug administration
Protocol: Solutions of test compounds were prepared in sterile physiological 0.9% saline and further diluted to working doses in saline solution. Test compounds or saline (control) were administered by sc route in a volume of 10 μL/1 g of body weight. All doses are expressed in terms of salts. Separate groups of mice received the respective dose of compound, and individual mice were only used once for behavioral testing.
Writhing was induced in male CD1 mice by ip injection of a 0.6% acetic acid aqueous solution as described previously.[48],[62] Groups of mice were administered sc different doses of test compound or saline (control), and 5 min prior to testing (25 min after drug or saline), each animal received an ip injection of acetic acid solution. Each mouse was placed in individual transparent Plexiglas chambers, and the number of writhes was counted during a 10 min observation period. […] For the antagonism study, naloxone methiodide was sc co-administered with the respective opioid agonist, and writhing was assessed as described above.
as §4

[5] = biological target: T1, MOR; test: competition radioligand binding, CHO cell membranes expressing human MOR, [3H]DAMGO
Protocol: as §2
(§5) Rat brain membranes were incubated with either [^3H]DAMGO (1 nM, 45 min, 35 °C) or [^3H][Ile^5,6]deltorphin II (0.5 nM, 45 min, 35 °C) for labeling MOR or DOR receptors, respectively. Guinea-pig brain membranes were incubated with [^3H]U69,593 (1 nM, 30 min, 30 °C) for labeling KOR. Binding assays with CHO cell membranes were conducted at 25 °C for 60 min using [^3H]DAMGO (1 nM) or [^3H]diprenorphine (0.2 nM) for labeling MOR or DOR, respectively. Nonspecific binding was determined using 10 μM naloxone (rodent brain) or 1–10 μM of the unlabeled counterpart of each radioligand (CHO cells). Reactions were terminated by rapid filtration through Whatman glass fiber GF/C filters. Filters were washed three times with 5 mL of ice-cold 50 mM Tris-HCl buffer (pH 7.4) using a Brandel M24R cell harvester (Gaithersburg, MD). Radioactivity retained on the filters was counted by liquid scintillation counting using a Beckman Coulter LS6500 (Beckman Coulter Inc., Fullerton, CA). All binding experiments were performed in duplicate and repeated at least three times.
(§6) aDetermined in competition radioligand binding assays using CHO cell membranes expressing
(§7) human MOR and DOR. Values represent the mean ± SEM of three independent experiments each

[6] = biological target: T2, DOR; test: competition radioligand binding, CHO cell membranes expressing human DOR, [3H]diprenorphine
Protocol: as §2, §5, §6, §7

[7] = biological target: T4, DOR (Rattus norvegicus, UniProt P33533); test: competition radioligand binding, rat brain membranes, [3H][Ile5,6]deltorphin II; conditions: rat brain membranes; read-out: opioid receptor binding Ki DOR
T4 construct: Membranes were prepared from Sprague-Dawley rat brains or guinea-pig brains according to the described procedures; tissue Labortierkunde und Laborgenetik, Medizinische Universität Wien; host or cells: Sprague-Dawley rat brain without cerebella
Protocol: (§8) Competition binding assays using rat brain (MOR and DOR) and guinea-pig brain (KOR) membranes (Table 1) were performed according to published procedures.[44],[49] […] In addition, we have assessed binding at the human opioid receptors stably transfected in Chinese hamster ovary (CHO) cells (Table S1).
(§9) Membranes were prepared from Sprague-Dawley rat brains or guinea-pig brains according to the described procedures.[44],[45] Brains without cerebella were homogenized on ice in 5 vol/wt of ice-cold 50 mM Tris-HCl buffer (pH 7.4) and diluted in 30 vol/wt of the same buffer. After centrifugation at 40 000g for 20 min at 4 °C, the pellets were resuspended in 30 vol/wt of 50 mM Tris-HCl buffer (pH 7.4) and incubated at 37 °C for 30 min. The centrifugation step described above was repeated, and the final pellets were resuspended in 5 vol/wt of 50 mM Tris-HCl buffer (pH 7.4) containing 0.32 M sucrose and stored at −80 °C until use.
as §5, §4

[8] = biological target: T5, KOR (Cavia porcellus, UniProt P41144); test: competition radioligand binding, guinea-pig brain membranes, [3H]U69,593; conditions: guinea-pig brain membranes; read-out: opioid receptor binding Ki KOR
T5 construct: Membranes were prepared from Sprague-Dawley rat brains or guinea-pig brains according to the described procedures; tissue Labortierkunde und Laborgenetik, Medizinische Universität Wien; host or cells: guinea-pig brain without cerebella
Protocol: as §8, §9, §5, §4

[9] = relative to reference full agonist DAMGO

| SMILES | EC50 [1] [µM] | functional profile at MOR (full/partial agonist) ([1]; full agonist ≥85% of the response to DAMGO) | MOR % stim. [1, 9] [%] | Emax [1, 9] [%] | increased agonist potency at DOR vs MOR ([2]; [35S]GTPγS EC50) [times] | EC50 [2] [µM] | Emax [2] [%] | EC50 [3] [µM] | Emax [3] [%] | ED50 [4] [mg/kg] | Ki [5] [µM] | Ki [6] [µM] | Ki [7] [µM] | Ki [8] [µM] | functional profile at KOR (full/partial agonist) ([3]; partial agonist <85% of the response to U69,593) | ED50 (95% CI) ([4]; mice, inhibition of writhing 30 min after drug administration) | increased antinociceptive potency vs comparator ([4]; writhing assay, 3a vs 3b, 4a vs 4b, 16b vs 7a (so in the source)) [times] |
| --- | --- | --- | --- | --- | --- | --- | --- | --- | --- | --- | --- | --- | --- | --- | --- | --- | --- |
| CO[C@@]12CC[C@@H](N[C@@H](Cc3ccccc3)C(=O)O)[C@@H]3Oc4c(O)ccc5c4[C@@]31CCN(C)[C@@H]2C5 [Compound 4b] | 0.00676 ± 0.00316 | full agonist | 99 ± 8 | 99 | 14 | 0.00048 ± 0.00016 | 94 ± 8 | 1.17 ± 0.505 | 81 ± 9 | 0.579 | 0.00415 ± 0.00047 | 0.00112 ± 0.00023 |  |  |  |  |  |
| CO[C@@]12CC[C@H](NC(C)C(=O)O)[C@@H]3Oc4c(O)ccc5c4[C@@]31CCN(C)[C@@H]2C5 (stereo in doubt) [Compound 15a, (2S)-2-[(4,5α-Epoxy-3-hydroxy-14β-methoxy-17-methylmorphinan-6α-yl)amino]propanoic Acid Dihydrochloride] |  |  |  | 100 ± 8 |  | 0.0243 ± 0.0053 | 106 ± 7 | 0.254 ± 0.118 | 67 ± 13 |  |  | 0.0149 ± 0.0019 | 0.0104 ± 1e-05 | 0.0715 ± 0.0096 |  |  |  |
| CO[C@@]12CC[C@H](NCC(=O)O)[C@@H]3Oc4c(O)ccc5c4[C@@]31CCN(C)[C@@H]2C5 [Compound 2a] | 0.00116 ± 0.00059 |  |  | 99 ± 4 |  |  |  | 0.399 ± 0.119 | 87 ± 4 | 0.0357 | 0.00079 ± 8e-05 | 0.0182 ± 0.0061 |  |  | full agonists |  |  |
| CO[C@@]12CC[C@H](N[C@@H](C)C(=O)O)[C@@H]3Oc4c(O)ccc5c4[C@@]31CCN(C)[C@@H]2C5 [Compound 3a] |  |  |  | 97 ± 5 |  | 0.00955 ± 0.00447 | 93 ± 9 | 0.214 ± 0.071 | 51 ± 3 | < 0.02 |  | 0.026 ± 0.0035 |  |  |  | 16.0 (5.45–47.0) μg/kg | 5 |
